# Laboratory results as given in ChEMBL document CHEMBL3046349, “Novel Mechanisms of Drug Action: Functional Selectivity at D2 Dopamine Receptors” (Med Chem Res, 2004).
# Organism: Rattus norvegicus
# Experiment: Selectivity ratio of K0.5 for Rattus norvegicus Sprague-Dawley (rat) striatum dopamine D2 receptor to K0.5 for Sprague-Dawley Rattus norvegicus (rat) striatum dopamine D1 receptor
# Assay type: tissue-based
smiles,measurement,value
Oc1cc2c(cc1O)[C@H]1c3ccccc3CN[C@@H]1CC2 (relative stereo),Ratio,10
